Like-named read-outs stand apart in the source and are kept apart here.

In one assay the target is T1, A3 AR (Homo sapiens, UniProt P0DMS8).
T1 construct: expressed in transfected cells; membranes
T1 sequence (P0DMS8 1-318): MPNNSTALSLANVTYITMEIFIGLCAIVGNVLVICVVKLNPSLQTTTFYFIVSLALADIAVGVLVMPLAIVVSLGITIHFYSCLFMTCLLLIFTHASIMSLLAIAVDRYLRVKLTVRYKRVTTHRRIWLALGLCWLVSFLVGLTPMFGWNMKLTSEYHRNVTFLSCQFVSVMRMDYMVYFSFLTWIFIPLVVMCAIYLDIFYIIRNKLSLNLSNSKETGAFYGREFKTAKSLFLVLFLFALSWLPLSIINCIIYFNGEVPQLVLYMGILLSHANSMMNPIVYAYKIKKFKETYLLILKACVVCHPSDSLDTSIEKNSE
Nature of the assay: Radioligand competition binding, human A3 AR. Particulars: binding affinity; 125I-ABA; membranes of HEK 293 cells stably expressing human A3 AR. On the procedure: (§1) Sf9 cells were cultured in Grace's medium supplemented with 10% fetal bovine serum, 2.5 μg/ml amphotericin B and 50 μg/ml gentamycin in an atmosphere of 50% N2/50% O2. Viral infection was performed at a density of 2.5×10^6 cells/mL with a multiplicity of infection of two for each virus used. Infected cells were harvested 3 days post-infection and washed twice in insect PBS (PBS pH 6.3). Cells were then resuspended in lysis buffer (20 mM HEPES pH 7.5, 150 mM NaCl, 3 mM MgCl2, 1 mM β-mercaptoethanol (BME), 5 μg/mL leupeptin, 5 μg/mL pepstatin A, 1 μg/mL aprotinin, and 0.1 mM PMSF) and snap frozen for storage at −80° C. Cells were thawed on ice, brought to 30 mL total volume in lysis buffer, and burst by N2 cavitation (600 psi for 20 minutes). A low-speed centrifugation was performed to remove any unlysed cells (1000×g for 10 minutes), followed by a high-speed centrifugation (17,000×g for 30 minutes). The pellet from the final centrifugation was homogenized in buffer containing 20 mM HEPES pH 8, 100mM NaCl, 1% glycerol, 2 μg/mL leupeptin, 2 μg/mL pepstatin A, 2 μg/mL Aprotinin, 0.1 mM PMSF, and 10 μM GDP using a small glass homogenizer followed by passage through a 26 gauge needle. Membranes were aliquoted, snap frozen in liquid N2, and stored at −80° C. Membranes from cells stably expressing the human A1 AR(CHO K1 cells) or A3 AR(HEK 293 cells) were prepared as described (Robeva et al., 1996).
(§2) Radioligand binding to recombinant human A2A receptors in Sf9 cell membranes was performed using either the radio labeled agonist, ^125I-APE (Luthin et al., 1995) or the radio labeled antagonist, ^125I-ZM241385 (^125I-ZM). To detect the high affinity, GTPγS-sensitive state of A1 and A3AR, we used the agonist, ^125I-ABA (Linden et al., 1985; Linden et al., 1993). Binding experiments were performed in triplicate with 5 μg (A2A) or 25 μg (A1 and A3) membrane protein in a total volume of 0.1 mL HE buffer (20 mM HEPES and 1 mM EDTA) with 1 U/mL adenosine deaminase and 5 mM MgCl2 with or without 50 μM GTPγS. Membranes were incubated with radioligands at room temperature for three hours (for agonists) or two hours (for antagonists) in Millipore Multiscreen® 96-well GF/C filter plates and assays were terminated by rapid filtration on a cell harvester (Brandel, Gaithersburg, Md.) followed by 4×150 μl washes over 30 seconds with ice cold 10 mM Tris-HCl, pH 7.4, 10 mM MgCl2. Nonspecific binding was measured in the presence of 50 μM NECA. Competition binding assays were performed as described (Robeva et al., 1996) using 0.5-1 nM ^125I-APE, ^125I-ZM241385, or ^125I-ABA. […]
On the technique in general: Displacement assays read how much labelled ligand stays bound in the presence of the test substance.

The target of a further assay is T2, human A1 AR (Homo sapiens, UniProt P30542).
T2 construct: expressed in transfected cells; membranes
T2 sequence (P30542 1-326): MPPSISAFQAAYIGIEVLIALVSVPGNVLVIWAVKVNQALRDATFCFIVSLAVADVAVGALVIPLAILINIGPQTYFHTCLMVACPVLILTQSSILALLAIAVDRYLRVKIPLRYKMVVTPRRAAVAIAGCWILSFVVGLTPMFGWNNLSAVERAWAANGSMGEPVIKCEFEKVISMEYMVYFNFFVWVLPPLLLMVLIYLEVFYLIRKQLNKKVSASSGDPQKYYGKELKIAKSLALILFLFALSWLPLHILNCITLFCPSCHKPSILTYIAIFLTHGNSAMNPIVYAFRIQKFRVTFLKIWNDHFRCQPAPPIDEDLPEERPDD
Nature of the assay: Radioligand competition binding, human A1 AR. Particulars: binding affinity; 125I-ABA; membranes of CHO K1 cells stably expressing human A1 AR. On the procedure: as §1, §2

Another assay concerns human neutrophils. Nature of the assay: Human neutrophil oxidative activity, luminol-enhanced chemiluminescence. Type of assay: cell-based. To be noted: fMLP-stimulated peak chemiluminescence. From the text:
Chemiluminescence Methods: Luminol enhanced chemiluminescence, a measure of neutrophil oxidative activity, is dependent upon both superoxide production and mobilization of the granule enzyme myeloperoxidase. The light is emitted from unstable high-energy oxygen species such as hypochlorous acid and singlet oxygen generated by activated neutrophils.
Purified human neutrophils (2×10^6/ml) suspended in Hanks balanced salt solution containing 0.1% human serum albumin (HA), adenosine deaminase (1 U/mL) and rolipram (100 nM) were incubated (37° C.) in a water bath for 15 min with or without rhTNF(10 U/ml). Following incubation 100 µL aliquots of the PMN were transferred to wells (White walled clear bottom 96 well tissue culture plates Costar #3670; 2 wells/condition) containing […] and luminol (final concentration 100 µM) with or without adenosine agonist (final agonist concentrations 0.01-1000 nM). The plate was incubated 5 min (37° C.) and then fMLP (501 in HA; final concentration […]) was added to all wells.
Peak chemiluminescence was determined with a Victor 1420 Multilabel Counter in the chemiluminescence mode using the Wallace Workstation software. Data are presented as peak chemiluminescence as percent of activity in the absence of an adenosine agonist. The EC50 was determined using PRISM software. All compounds were tested with PMNs from three separate donors.
f-met-leu-phe (fMLP), luminol, superoxide dismutase, cytochrome C, fibrinogen, adenosine deaminase, and trypan blue were obtained from Sigma Chemical. Ficoll-hypaque was purchased from ICN (Aurora, Ohio), and Cardinal Scientific (Santa Fe, N. Mex.) and Accurate Chemicals and Scientific (Westerbury, N.Y.). Endotoxin (lipopolysaccharide; E. coli K235) was from List Biologicals (Campbell, Calif.). Hanks balanced salt solution (HBSS), and limulus amebocyte lysate assay kit were from BioWittaker (Walkersville, Md.). Human serum albumin (HSA) was from Cutter Biological (Elkhart, Ind.). Recombinant human tumor necrosis factor-alpha was supplied by Dianippon Pharmaceutical Co. Ltd. (Osaka, Japan). ZM241385 (4-(2-[7-amino-2-(2-furyl) [1,2,4]triazolo[2,3-a][1,3,5]triazin-5-yl amino]ethyl)phenol) was a gift from Simon Poucher, Zeneca Pharmaceuticals, Cheshire, UK. Stock solutions (1 mM and 10 mM in DMSO) were made and stored at −20° C.
Purified neutrophils (−98% neutrophils and >95% viable by trypan blue exclusion) containing <1 platelet per 5 neutrophils and <50 pg/ml endotoxin (limulus amebocyte lysate assay) were obtained from normal heparinized (10 U/ml) venous blood by a one step Ficoll-hypaque separation procedure (A. Ferrante et al., J. Immunol. Meth., 36, 109 (1980)).
Luminol-enhanced chemiluminescence, a measure of neutrophil oxidative activity, is dependent upon both superoxide production and mobilization of the lysosomal granule enzyme myeloperoxidase. The light is emitted from unstable high-energy oxygen species generated by activated neutrophils. Purified neutrophils (5-10×10^5/ml) were incubated in Hanks balanced salt solution containing 0.1% human serum albumin (1 ml) with the tested A2A agonist with or without rolipram and with or without tumor necrosis factor-alpha (1 U/ml) for 30 minutes at 37° C. in a shaking water bath. Then luminol (1×10^−4 M) enhanced f-met-leu-phe (1 mcM) stimulated chemiluminescence was read with a Chronologo Photometer (Crono-log Corp., Havertown, Pa.) at 37° C. for 2-4 minutes. Chemiluminescence is reported as relative peak light emitted (=height of the curve) compared to samples with tumor necrosis factor-alpha and without agonist or rolipram.

In assay [1] the target is T3, recombinant human A2A receptors (Homo sapiens, UniProt P29274).
T3 construct: expressed in transfected cells; host or cells: Sf9 insect cells, viral infection; membranes
Nature of the assay: Radioligand competition binding, recombinant human A2A receptors. To be noted: binding affinity; 125I-APE or 125I-ZM241385; Sf9 cell membranes. On the procedure:
as §1, §2

Setting [2] is: human neutrophil experiment with Rolipram, read-out: Functional + Roli.
[3] abbreviates: human neutrophil experiment without Rolipram, read-out: Functional.

T3 sequence (P29274 whole entry): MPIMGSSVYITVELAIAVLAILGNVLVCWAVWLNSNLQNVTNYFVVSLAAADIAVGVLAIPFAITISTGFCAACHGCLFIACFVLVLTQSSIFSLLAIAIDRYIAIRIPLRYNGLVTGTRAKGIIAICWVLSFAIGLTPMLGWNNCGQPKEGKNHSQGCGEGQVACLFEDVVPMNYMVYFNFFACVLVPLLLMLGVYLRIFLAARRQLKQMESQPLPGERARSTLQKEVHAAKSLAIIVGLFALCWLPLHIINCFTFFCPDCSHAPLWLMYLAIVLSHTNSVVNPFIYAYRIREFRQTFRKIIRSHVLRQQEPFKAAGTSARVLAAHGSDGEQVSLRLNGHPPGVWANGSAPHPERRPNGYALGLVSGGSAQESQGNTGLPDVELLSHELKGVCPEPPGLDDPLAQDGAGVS

For orientation: Ki means the equilibrium dissociation constant of an inhibitor or competing ligand from its target. Regarding `COC(=O)C1CCC(CC#Cc2nc(N)c3ncn([C@@H]4O[C@H](C(=O)NC5CC5)C(O)C4O)c3n2)CC1` (stereo in doubt) [Example 1, 4-{3-[6-Amino-9-(5-cyclopropylcarbamoyl-3,4-dihydroxy-tetrahydro-furan-2-yl)-9H-purin-2-yl]-prop-2-ynyl}-cyclohexanecarboxylic acid methyl ester], the Ki on A3 AR amounted to 34 nM; at human A1 AR, 32 nM; in assay [1], 0.58 nM. The EC50 in the assay on human neutrophils (setting [2]) was 0.2 nM; in the assay on human neutrophils (setting [3]), 2 nM.

Turning to `COC(=O)N1CCC(CC#Cc2nc(N)c3ncn([C@@H]4O[C@H](C(=O)NC5CC5)C(O)C4O)c3n2)CC1` (stereo in doubt) [Example 2, 4-{3-[6-Amino-9-(5-cyclopropylcarbamoyl-3,4-dihydroxy-tetrahydro-furan-2-yl)-9H-purin-2-yl]-prop-2-ynyl}-piperidine-1-carboxylic acid methyl ester], the Ki at A3 AR is 247 nM; at human A1 AR, 57 nM; in assay [1], 0.7 nM. In addition, the EC50 in the assay on human neutrophils (setting [2]) is 0.2 nM; in the assay on human neutrophils (setting [3]), 2 nM.

As for `C[C@@H]1CCC[C@@](O)(C#Cc2nc(N)c3ncn([C@@H]4O[C@H](C(=O)NC5CC5)C(O)C4O)c3n2)C1` (stereo in doubt) [Example 3, 5-[6-Amino-2-(1-hydroxy-3-methyl-cyclohexylethynyl)-purin-9-yl]-3,4-dihydroxy-tetrahydro-furan-2-carboxylic acid cyclopropylamide], the Ki at A3 AR came to 3 nM; at human A1 AR, 1.5 nM; in assay [1], 0.5 nM. Further, the EC50 with human neutrophils (setting [2]) was 0.04 nM; with human neutrophils (setting [3]), 0.3 nM.

Take `Nc1nc(I)nc2c1ncn2[C@@H]1O[C@H](C(=O)NC2CC2)C(O)C1O` (stereo in doubt) [Example 4, 5-(6-Amino-2-iodo-purin-9-yl)-3,4-dihydroxy-tetrahydro-furan-2-carboxylic acid cyclopropylamide]: the inhibition constant Ki was found to be 45 nM at A3 AR, 33 nM at human A1 AR and 0.6 nM in assay [1]. The results for the EC50 with human neutrophils (setting [2]) and in the assay with human neutrophils (setting [3]) were 0.2 nM and 2 nM, respectively.
